These results are taken from PubChem BioAssay (NCI).

Several values for one entry are separate records, joined by “and”; a condition that tells them apart may be missing. Equal values may be shown once.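 How tested: cells in 96-well plates exposed to compound for 48 hours at five concentrations. GI50 marks 50% less growth. TGI is the concentration that stops growth completely.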 Bounds are passed on as bounds.

For the first assay, the system named is A498 renal. Briefly: inhibition of tumour cell growth, NCI panel, 48 h.
On to `COc1cc(N2C(=O)[C@H](O)C2c2ccc(SC)cc2)cc(OC)c1OC` (stereo partly specified), for which the GI50 was less than 0.01 µM and the TGI turned out to be 0.0882 µM.
In turn, `CCC(=O)C12OC3OC(C)(C)OC3C1OC(C)(C)O2` (stereo unspecified) displayed a TGI of more than 100 µM.
In the case of `O=C1OCC2=C1C(c1ccc(Cl)c(Cl)c1)c1cc3c(cc1N2CCO)OCCO3` (stereo unspecified), the GI50 is 0.147 µM and the TGI amounted to 1.84 µM.
For the compound `O=C(/C=C/c1cc2ccccc2[nH]c1=O)/C=C/c1cc2ccccc2[nH]c1=O`, the GI50 is more than 50.1 µM and the TGI is more than 100 µM.
Consider `CC/C=C\C/C=C\C/C=C\CCCCCCCC(=O)OCC(O)CO` (stereo unspecified), for which the TGI was more than 100 µM.
`Cc1cccc(C)c1NC(=O)/C(=N/NC(N)=S)C(C)C(=O)c1ccc(Cl)cc1` (stereo unspecified) returned a TGI of more than 100 µM.
With `N#CC(C#N)=C1NC(=O)CC(=O)N1`, the TGI is more than 100 µM.
Regarding `Nc1nc(OCc2ccccc2)c2[nH]cnc2n1`, the GI50 was 15.2 µM; the TGI is 183 µM and 71.3 µM.
On to `COc1cc2nc(N3CCCC3)nc(NCCc3ccccc3)c2cc1OC`, for which the GI50 was 1.64 µM and the TGI stood at 3.5 µM.
The compound `COc1cc(C(=O)C/C(CCC(=O)Nc2ccccc2[N+](=O)[O-])=N\NC(N)=O)ccc1O` yielded a TGI of more than 100 µM.
For the compound `C1CCC([PH+](C2CCCCC2)C2CCCCC2[PH+](C2CCCCC2)C2CCCCC2)CC1.[Au].[CH-]1CCCCC1CC1CCCC[N-]1` (stereo unspecified), the GI50 was 0.145 µM and the TGI came to 0.673 µM.
For `COc1ccc(-c2[nH]c3ccccc3c2-c2ccc(OC)cc2)cc1`, in that order: 4 µM and 12.8 µM.
For the compound `O=C(/C=C\c1cccc([N+](=O)[O-])c1)/C=C/c1cccc([N+](=O)[O-])c1`, the GI50 is more than 100 µM and the TGI was more than 100 µM.
Take `O=C1c2cccnc2C(=O)c2c1c(C(=O)NCCCN1CCCCC1)c1ccccn21`: the GI50 was 1.54 µM and the TGI stood at 3.23 µM.
The compound `Cc1ccc2c(C3Cc4ccccc4N3C(=O)/C=C\C(=O)O)c(C)[nH]c2c1` (stereo unspecified) showed a TGI of more than 100 µM.
As for `O=C(Nc1ccc(OCc2nnc(-c3ccc(Cl)cc3)o2)c(F)c1)Nc1ccc(Cl)c(C(F)(F)F)c1`, the GI50 is 1.18 µM and the TGI amounted to 7.43 µM.
In turn, `COC(=O)C1CC2CC(=NNC(N)=O)CC2C1` (stereo unspecified) showed a TGI of more than 100 µM.
Take `O=C1CC(c2c[nH]c3ccccc23)C(=O)N1` (stereo unspecified): the TGI is more than 100 µM.
In turn, `COc1cc2c(c(OC)c1OC)-c1ccc(SC)c(=O)cc1C(NC(=O)c1ccccc1)CC2` (stereo unspecified) returned a TGI of 0.435 µM.
In the case of `CCOC(=O)C1=C(C)N(c2ccc(Cl)cc2)[C@]2(C#N)C(O)=C(Cl)C(Cl)=C(O)[C@]12C#N`, the GI50 is more than 100 µM and the TGI is more than 100 µM.

A further assay concerns A549 NSCLC. Briefly: inhibition of tumour cell growth, NCI panel, 48 h.
As to `COc1cc(N2C(=O)[C@H](O)C2c2ccc(SC)cc2)cc(OC)c1OC` (stereo partly specified), the GI50 is 0.0131 µM and the TGI is more than 100 µM.
Compound `CCC(=O)C12OC3OC(C)(C)OC3C1OC(C)(C)O2` (stereo unspecified) had a TGI of more than 100 µM.
For `O=C1OCC2=C1C(c1ccc(Cl)c(Cl)c1)c1cc3c(cc1N2CCO)OCCO3` (stereo unspecified), the GI50 is 0.299 µM and the TGI turned out to be 11.8 µM.
Compound `O=C(/C=C/c1cc2ccccc2[nH]c1=O)/C=C/c1cc2ccccc2[nH]c1=O` had a TGI of more than 59.2 µM.
On the same count and under the same terms, the same measure for `CC/C=C\C/C=C\C/C=C\CCCCCCCC(=O)OCC(O)CO` (stereo unspecified): more than 100 µM; for `Cc1cccc(C)c1NC(=O)/C(=N/NC(N)=S)C(C)C(=O)c1ccc(Cl)cc1` (stereo unspecified): more than 100 µM.
The compound `N#CC(C#N)=C1NC(=O)CC(=O)N1` returned a TGI of more than 100 µM.
With `Nc1nc(OCc2ccccc2)c2[nH]cnc2n1`, the GI50 is 35.1 µM and 48.9 µM; the TGI was 338 µM and 240 µM.
The compound `COc1cc(C(=O)C/C(CCC(=O)Nc2ccccc2[N+](=O)[O-])=N\NC(N)=O)ccc1O` had a TGI of more than 100 µM.
Regarding `C1CCC([PH+](C2CCCCC2)C2CCCCC2[PH+](C2CCCCC2)C2CCCCC2)CC1.[Au].[CH-]1CCCCC1CC1CCCC[N-]1` (stereo unspecified), the GI50 is 0.241 µM and the TGI came out at 3.03 µM.
For `COc1ccc(-c2[nH]c3ccccc3c2-c2ccc(OC)cc2)cc1`, the GI50 was 7.14 µM and the TGI is 30.3 µM.
Regarding `O=C(/C=C\c1cccc([N+](=O)[O-])c1)/C=C/c1cccc([N+](=O)[O-])c1`, the GI50 was 3.21 µM and the TGI was found to be 12.2 µM.
Regarding `O=C1c2cccnc2C(=O)c2c1c(C(=O)NCCCN1CCCCC1)c1ccccn21`, the GI50 is 1.25 µM and the TGI amounted to 3.8 µM.
Consider `Cc1ccc2c(C3Cc4ccccc4N3C(=O)/C=C\C(=O)O)c(C)[nH]c2c1` (stereo unspecified), for which the TGI is more than 100 µM.
Take `O=C(Nc1ccc(OCc2nnc(-c3ccc(Cl)cc3)o2)c(F)c1)Nc1ccc(Cl)c(C(F)(F)F)c1`: the GI50 was 2.65 µM and the TGI is 11.7 µM.
`COC(=O)C1CC2CC(=NNC(N)=O)CC2C1` (stereo unspecified) showed a TGI of more than 100 µM.
As for `O=C1CC(c2c[nH]c3ccccc23)C(=O)N1` (stereo unspecified), the TGI is more than 100 µM.
`COc1cc2c(c(OC)c1OC)-c1ccc(SC)c(=O)cc1C(NC(=O)c1ccccc1)CC2` (stereo unspecified) showed a TGI of 65.9 µM.
With `CCOC(=O)C1=C(C)N(c2ccc(Cl)cc2)[C@]2(C#N)C(O)=C(Cl)C(Cl)=C(O)[C@]12C#N`, the GI50 was more than 100 µM and the TGI was more than 100 µM.

Another assay relates to CCRF-CEM leukemia. The assay can be described thus: inhibition of tumour cell growth, NCI panel, 48 h.
`COc1cc(N2C(=O)[C@H](O)C2c2ccc(SC)cc2)cc(OC)c1OC` (stereo partly specified): the GI50 is less than 0.01 µM and the TGI was more than 100 µM.
As to `CCC(=O)C12OC3OC(C)(C)OC3C1OC(C)(C)O2` (stereo unspecified), the TGI was more than 100 µM.
Consider `O=C1OCC2=C1C(c1ccc(Cl)c(Cl)c1)c1cc3c(cc1N2CCO)OCCO3` (stereo unspecified), for which the GI50 is 0.184 µM and the TGI was 16.7 µM.
The matching figures for `O=C(/C=C/c1cc2ccccc2[nH]c1=O)/C=C/c1cc2ccccc2[nH]c1=O`: 7.97 µM and more than 100 µM.
`CC/C=C\C/C=C\C/C=C\CCCCCCCC(=O)OCC(O)CO` (stereo unspecified) gave a TGI of more than 72.9 µM.
With `Cc1cccc(C)c1NC(=O)/C(=N/NC(N)=S)C(C)C(=O)c1ccc(Cl)cc1` (stereo unspecified), the TGI is more than 100 µM.
In the case of `N#CC(C#N)=C1NC(=O)CC(=O)N1`, the TGI is more than 100 µM.
`Nc1nc(OCc2ccccc2)c2[nH]cnc2n1`: the GI50 was 39.5 µM; the TGI was 319 µM and 274 µM.
